According to ChEMBL document CHEMBL3044989, “Structurecytotoxicity relationship of a novel series of miconazole-like compounds” (Med Chem Res, 2012):
Active and inactive are the calls of the source. The rule behind the calls is not given here.

How the values were obtained:
Escherichia coli = test: Antimicrobial activity against Escherichia coli (DH5alpha) after 16 hr by spectrophotometry; assay type: functional, organism-based; details: DH5[alpha]
K562 = test: Cytotoxicity against Homo sapiens (human) K562 cells at 20 to 80 uM after 24 hr by MTT assay; assay type: functional, cell-based

SMILES	IC50 (Escherichia coli)	Activity (K562)
COc1ccc(/C(Cn2cnc3ccccc32)=N\Nc2ccccc2)cc1	13.7 µM	
c1ccc(N/N=C(/Cn2ccnc2-c2ccccc2)c2ccccc2)cc1	16.8 µM	
O=c1cnn(C/C(=N/Nc2ccccc2)c2ccccc2)c(=O)[nH]1	14.6 µM	Active
O=c1ccn(C/C(=N/Nc2ccccc2)c2ccccc2)c(=O)[nH]1	57.3 µM	
c1ccc(N/N=C(/Cn2cnc3ccccc32)c2ccccc2)cc1	12.3 µM	
c1ccc(N/N=C(/Cn2ccnc2)c2ccccc2)cc1	7.6 µM	

The next compounds have a lower IC50 (Escherichia coli) than those just listed; values first:

IC50 (Escherichia coli)	SMILES	Activity (K562)
7.1 µM	Cc1cn(C/C(=N/Nc2ccccc2)c2ccccc2)c(=O)[nH]c1=O	
4.8 µM	O=c1[nH]c(=O)n(C/C(=N/Nc2ccccc2)c2ccccc2)cc1Cl	
3.1 µM	O=C1CNC(=O)N1C/C(=N/Nc1ccccc1)c1ccccc1	Active
6.2 µM	COc1ccc(/C(Cn2ccc(=O)[nH]c2=O)=N\Nc2ccccc2)cc1	
3.4 µM	c1ccc(N/N=C(/Cn2nnc3ccccc32)c2ccccc2)cc1	Active
